According to patent US20190328857A1, “CALR AND JAK2 VACCINE COMPOSITIONS” (IO Biotech ApS, priority 2016, published 2019):

What was measured:
Assay type in all cases: cell-based, human
PBMC from healthy donors [1] = experiment: TNF-α ELISPOT on PBMC from healthy donors; conditions: ten healthy controls analyzed per peptide
Source text: Of note, all patients with a TNF-α response against CALRLong1 and CALRLong2 did also display an IFN-g response in ELISPOT (FIGS. 14-15).

PBMC from healthy donors [2] = experiment: IFN-γ ELISPOT on PBMC from healthy donors; conditions: for healthy donors with a significant response in IFN-γ ELISPOT / healthy donors with a significant response in IFN-γ ELISPOT, percentage: of 21 (CALRLong1), 23 (CALRLong2), 9 (CALRLong4), 7 (CALRLong5) analyzed
Source text: (§1) The ELISPOT assay is based on the detection of antigen induced release of cytokines—most often IFN-γ—by single T-cells upon triggering of its T-cell receptor. Reactivity of a single T-cell can be detected and quantified via binding of the respective cytokine on special nitrocellulose filter plates. When a T-cell recognizes the peptide epitope examined, the T-cell releases cytokines that are detected by a colorimetric reaction using an enzyme conjugated to a secondary cytokine specific antibody. The reaction product is visible as a spot. Ideally, each spot represents the cytokines secreted by a single activated cell. ELISPOTs were performed and analyzed as described previously (Munir et al., 2013). PBMCs were tested in different concentrations to ensure an optimal response. The distribution-free resampling method, described by Moodie et al., was used for statistical analyses and a p-value ≤0.05 was deemed a T-cell response (Moodie et al., 2010).
PBMC from healthy donors were analyzed by IFN-γ ELISPOTs as described in Example 1 for immune responses against the CARL-mutant epitopes CALRLong1 ([…]), CALRLong2 ([…]), CALRLong4 ([…]) and CALRLong5 ([…]). […]

[3] = system: PBMC from CALR-mutated MPN patients; experiment: IFN-γ ELISPOT for spontaneous T-cell responses in PBMC from CALR-mutated MPN patients
Source text: The study was approved by the local ethics committee, and all patients signed informed consent, in accordance with the Helsinki Declaration before study participation. We included 31 CALRmut MPN patients with the following diagnoses: ET (n=13), PMF (n=12), post-ET MF (n=4), or prefibrotic MF (n=2). Peripheral blood mononuclear cells (PBMC) were isolated with Lymphoprep and frozen in fetal calf serum with 10% dimethyl sulfoxide. First, we scrutinized PBMC from two MPN patients for the presence of spontaneous T-cell responses against two CALR derived peptides, CALR Long1 ([…], SEQ ID NO: 2) and CALR Long2 ([…], SEQ ID NO: 3) using the highly sensitive and solid interferon gamma (IFN-γ) Enzyme-Linked ImmunoSPOT (ELISPOT) secretion assays (FIGS. 1A and 1C). The ELISPOT has proven to be the central assay in studies focusing on identification on novel tumor antigens by the characterization of novel tumor antigen responses in PBMC from cancer patients. Thus, this assay has previously been utilized for the identification of novel tumor antigens based on spontaneous immunity in cancer patients (Andersen et al., 2005).
as §1
After the promising responses in the first two patients we analyzed PBMC from additional 29 CALR-mutated MPN patients. […] Of the 24 evaluable patients, 10 had ET and 14 had MF; the latter group comprised 11 patients with PMF, 2 with post-ET MF, and 1 with prefibrotic MF. […] Furthermore, we examined PBMC from two patients in a tumor necrosis factor alpha (TNF-α) ELISPOT.

[4] = system: PBMC / T-cells from CALRmut MPN patients; experiment: Intracellular cytokine staining of patient PBMC and of DC-stimulated T-cell culture; conditions: PBMC from patient C39
Source text: Next, we chose to analyze PBMC from four patients with a response against CALR Long1 and CALR Long2 peptides using intracellular cytokine staining. Although this method is less sensitive than ELISPOT, it allows elucidating which immune cells secrete the cytokine identified in ELISPOT. Hereby, we could determine whether the reacting cells were T-cells and, if so, if the responding cells were CD4 T-cells or CD8 T-cells. In short, cells were stimulated with CALR Long1 or with a scrambled peptide ([…]) as control. For surface markers we employed 4 μl NIR, 10 μl CD4 PerCP, 2 μl CD8 Pacific Blue, and 10 μl CD3 FITC and for intracellular staining we used 2 μl anti-TNF-α and anti IFN-γ antibodies conjugated with either PE-Cy7 or APC. Washing, permeabilization and staining procedures followed previously described methods (Munir, Andersen et al., 2013). […] To confirm that the responses identified indeed were T-cell responses against CALR Long1, we generated dendritic cells from patient C42 using previously described methods. Autologous PBMC were stimulated three times with the dendritic cells, which had been pulsed with CALR Long1, and we hereby generated a CALR Long1 specific T-cell culture. […] The frequent detection of T-cell responses indicate, that the CALR mutations encode highly immunogenic cancer antigens, which represent ideal targets for anti-cancer immune therapy.

[5] = system: CALRLong1-specific T-cells; experiment: Intracellular cytokine staining of CALRLong1-specific T-cell culture stimulated with peptide; conditions: after three stimulations with autologous dendritic cells
Protocol: Fresh PBMCs were first enriched for CD14+ cells using MACS CD14 MicroBeads (Miltenyi Biotech GmbH, Bergisch Gladbach, Germany). This was considered day 0. The resulting monocyte-depleted cell culture was termed peripheral blood lymphocytes (PBL). The enriched cells were cultured using CellGro (CellGenix GmbH, Freiburg, Germany), and stimulated with GM-CSF (1000 U/ml) and IL-4 (250 U/ml) (both PeproTech, Rocky Hill, N.J., USA). The next day, to generate fast dendritic cells (fastDC), we treated half of the enriched cells with a maturation cocktail comprising IFN-γ (1000 U/ml) (PeproTech, Rocky Hill, N.J., USA), PolyI:C (20 μg/ml) (Sigma-Aldrich, St. Louis, Mo., USA) and CALRLong1 peptide. PBL were cultured overnight in X-VIVO medium (Lonza Group Ltd., Basel, Switzerland) and then stimulated with half of the fastDC. The other half of the fastDC were frozen for later use.
The other half of the enriched cells were cultured until day 7, at which time these cells were treated with the same maturation cocktail as above, to generate mature dendritic cells (mDC). The next day, these mDC were used to stimulate PBLs. On day 9, IL-2 (120 U/mL) (Novartis, Basel, Switzerland) and IL-7 (40 U/ml) (PeproTech, Rocky Hill, N.J., USA) was added. On day 14, we thawed the fastDC that had been frozen on day 2, and used these cells to stimulate the PBL. On day 16 and day 24 we added, IL-2 and IL-7 in the concentrations mentioned above.
At day 38 of the T-cell culture, we stimulated the T-cells with CALRLong1 peptide for 4 h and next isolated IFN-γ secreting cells using the MACS IFN-γ secretion assay. The isolated cells were expanded using a rapid expansion protocol. The vast majority of cells that reacted to CALRLong1 peptide stimulation were CD4^+ T-cells; thus, we isolated CD4^+ T cells from the REP culture using the EasySep Human CD4 isolation Kit (StemCell Technologies, Inc., Vancouver, BC, Canada). The enriched CD4^+ T-cells were then cloned by limiting dilution, and growing T-cell clones were rapidly expanded using feeder cells and high dose IL-2 (6000 u/ml). T-cell receptor clonotyping of the cloned cells was performed by denaturing gradient gel electrophoresis as previously described.
Frozen T-cells were thawed one day prior to assaying, and in experiments examining CD107a expression, a CD107a-PE antibody was added to cells directly after addition of peptide or target cells. After one hour of stimulation, protein-transport inhibitor Brefeldin A (BD Biosciences, San Jose, Calif., USA) was added to the cells which were then stimulated for four h. Cells were stained with CD3-APC-H7, CD4-FITC, CD8-PerCP, IFN-γ-APC, TNF-α-BV421 and Fixable Viability Stain 510 (BD Biosciences, San Jose, Calif., USA), permeabilized and washed with Permeabilization Reagent/Diluent and fixation-permeabilization buffer (AH Diagnostics, Aarhus, Denmark). Cells were acquired with a FACS Canto II (BD Biosciences) and analyzed using FACSDiva software. All effector cell stimulations were run in triplicate wells if not otherwise specified.

[6] = system: PBMCs from the CALRmut donor; experiment: Spontaneous ex-vivo ELISPOT, 48 hour assay; conditions: high background, rules of Moodie et al.
Protocol: We established a CALRLong1-specific T-cell culture from a CALRmut patient with a strong […] T-cell response against CALRLong1 peptide. PBL were stimulated three times with autologous dendritic cells, and T-cells were analyzed using intracellular cytokine staining (ICS). […] However, CD4^+ T cells responded to CALRLong1 (FIG. 7). […] Since CALRLong4 peptide comprises the shared 36 amino acid C-terminus found in all CALRmut patients, we tested PBMCs from the donor for a spontaneous ex-vivo ELISPOT response in a 48 hour assay.

Row | Sequence | healthy controls with a significant TNF-α response (PBMC from healthy donors [1]) | immune responses of healthy donors in IFN-γ ELISPOT (PBMC from healthy donors [2]) | healthy donors with a significant response in IFN-γ ELISPOT (PBMC from healthy donors [2]) | healthy donors with a significant response in IFN-γ ELISPOT, percentage (PBMC from healthy donors [2]) | patients that responded in IFN-γ ELISPOT, percentage ([3]; 18 evaluable patients for CALR Long1, 24 for CALR Long2) | patients that responded in IFN-γ ELISPOT ([3]; 18 evaluable patients for CALR Long1, 24 for CALR Long2, p-value ≤0.05 deemed a T-cell response) | response confirmed in additional ELISPOT ([3]; samples from 5 of the responding patients retested) | type of T-cell response, intracellular cytokine staining [4] | response of CD4^+ T cells of the CALRLong1 bulk culture to peptide stimulation [5] | spontaneous ex-vivo ELISPOT response [6]
1 | TRRKMRRKMSPARPRTSCREACLQGWTEA (listed as Homo sapiens) [CALRLong2] | Five | strong immune responses | 18 | 78% | 42% | 10 patients | 4 patients | CD4 T-cell response | did not respond | 
2 | RRMRRTRRKMRRKMSPARPRTSCREACLQGWTEA (listed as Homo sapiens) [CALRLong4] |  | strong immune responses | 9 | 100% |  |  |  |  | reacted | significant response
